Laboratory results reported in ChEMBL document CHEMBL2157998, “Synthesis and biological evaluation of new phenothiazine derivatives bearing a pyrazole unit as protein farnesyltransferase inhibitors” (Bioorg Med Chem Lett, 2012).
Active and inactive are the calls of the source. The rule behind the calls is not given here.

Key:
[1] = molecular target: Protein farnesyltransferase (Homo sapiens, UniProt P49354+P49356); experiment: Inhibition of recombinant human FTase using dansyl-GCVLS as substrate at 100 uM after 15 mins by fluorimetric analysis; type: protein-complex assay
CCRF-CEM = experiment: Growth inhibition of human CCRF-CEM cells at 10 uM after 48 hrs by single dose SRB assay; type: functional; details: read-out: GI
HL-60(TB) = experiment: Growth inhibition of human HL-60(TB) cells at 10 uM after 48 hrs by single dose SRB assay; type: functional
MOLT-4 = experiment: Growth inhibition of human MOLT4 cells at 10 uM after 48 hrs by single dose SRB assay; type: functional
RPMI-8226 = experiment: Growth inhibition of human RPMI8226 cells at 10 uM after 48 hrs by single dose SRB assay; type: functional
SF-295 = experiment: Growth inhibition of human SF295 cells at 10 uM after 48 hrs by single dose SRB assay; type: functional
SNB-19 = experiment: Growth inhibition of human SNB19 cells at 10 uM after 48 hrs by single dose SRB assay; type: functional
U-251 = experiment: Growth inhibition of human U251 cells at 10 uM after 48 hrs by single dose SRB assay; type: functional
[2] = Growth inhibition of human […] cells at 10 uM after 48 hrs by single dose SRB assay; type: functional; details: read-out: GI
HCT-15 = experiment: Growth inhibition of human HCT15 cells at 10 uM after 48 hrs by single dose SRB assay; type: functional
HT-29 = experiment: Growth inhibition of human HT-29 cells at 10 uM after 48 hrs by single dose SRB assay; type: functional
SW-620 = experiment: Growth inhibition of human SW620 cells at 10 uM after 48 hrs by single dose SRB assay; type: functional
EKVX = experiment: Growth inhibition of human EKVX cells at 10 uM after 48 hrs by single dose SRB assay; type: functional
NCI-H226 = experiment: Growth inhibition of human NCI-H226 cells at 10 uM after 48 hrs by single dose SRB assay; type: functional
NCI-H522 = experiment: Growth inhibition of human NCI-H522 cells at 10 uM after 48 hrs by single dose SRB assay; type: functional; details: NCI-H522, 48 h, read-out: GI
LOX IMVI = experiment: Growth inhibition of human LOXIMVI cells at 10 uM after 48 hrs by single dose SRB assay; type: functional
SK-MEL-5 = experiment: Growth inhibition of human SK-MEL-5 cells at 10 uM after 48 hrs by single dose SRB assay; type: functional
UACC-62 = experiment: Growth inhibition of human UACC62 cells at 10 uM after 48 hrs by single dose SRB assay; type: functional; details: UACC-62, 48 h, read-out: GI
ACHN = experiment: Growth inhibition of human ACHN cells at 10 uM after 48 hrs by single dose SRB assay; type: functional
SN12C = experiment: Growth inhibition of human SN12C cells at 10 uM after 48 hrs by single dose SRB assay; type: functional
CAKI-1 = experiment: Growth inhibition of human Caki1 cells at 10 uM after 48 hrs by single dose SRB assay; type: functional
UO-31 = experiment: Growth inhibition of human UO31 cells at 10 uM after 48 hrs by single dose SRB assay; type: functional
OVCAR-3 = experiment: Growth inhibition of human OVCAR3 cells at 10 uM after 48 hrs by single dose SRB assay; type: functional
OVCAR-8 = experiment: Growth inhibition of human OVCAR8 cells at 10 uM after 48 hrs by single dose SRB assay; type: functional
NCI/ADR-RES = experiment: Growth inhibition of human NCI/ADR-RES cells at 10 uM after 48 hrs by single dose SRB assay; type: functional; details: read-out: GI
MDA-MB-231 = experiment: Growth inhibition of human MDA-MB-231 cells at 10 uM after 48 hrs by single dose SRB assay; type: functional
MDA-MB-468 = experiment: Growth inhibition of human MDA-MB-468 cells at 10 uM after 48 hrs by single dose SRB assay; type: functional
HOP-92 = experiment: Growth inhibition of human HOP92 cells at 10 uM after 48 hrs by single dose SRB assay; type: functional; details: HOP-92, 48 h, read-out: GI
PC-3 = experiment: Growth inhibition of human PC3 cells at 10 uM after 48 hrs by single dose SRB assay; type: functional; details: PC-3, 48 h, read-out: GI

## Cc1cc(-c2ccccc2)n(CC(=O)N2c3ccccc3Sc3ccccc32)n1
[1]
  inhibition: 0%

## Cc1c2c(nn1CC(=O)N1c3ccccc3Sc3ccccc31)CCCC2
[1]
  inhibition: 0%
CCRF-CEM
  inhibition of growth at 10 µM: 6.5%
HL-60(TB)
  growth inhibition (GI): inactive
MOLT-4; MOLT-4, 48 h, read-out: GI
  inhibition of growth at 10 µM: 20.1%
RPMI-8226; RPMI-8226, 48 h, read-out: GI
  inhibition of growth at 10 µM: 16.2%
SF-295
  growth inhibition (GI): inactive
SNB-19
  growth inhibition (GI): inactive
U-251; U-251, 48 h, read-out: GI
  inhibition of growth at 10 µM: 10.2%
[2]
  inhibition of growth at 10 µM: 8.4%
HCT-15; HCT-15, 48 h, read-out: GI
  inhibition of growth at 10 µM: 8%
HT-29
  growth inhibition (GI): inactive
SW-620
  growth inhibition (GI): inactive
EKVX
  growth inhibition (GI): inactive
NCI-H226
  growth inhibition (GI): inactive
NCI-H522
  inhibition of growth at 10 µM: 15.2%
LOX IMVI
  growth inhibition (GI): inactive
SK-MEL-5
  growth inhibition (GI): inactive
UACC-62
  inhibition of growth at 10 µM: 13.2%
ACHN
  growth inhibition (GI): inactive
SN12C; read-out: GI
  inhibition of growth at 10 µM: 5.6%
CAKI-1; CAKI-1, 48 h, read-out: GI
  inhibition of growth at 10 µM: 8.1%
UO-31; UO-31, 48 h, read-out: GI
  inhibition of growth at 10 µM: 10%
OVCAR-3
  growth inhibition (GI): inactive
OVCAR-8
  growth inhibition (GI): inactive
NCI/ADR-RES
  inhibition of growth at 10 µM: 6.2%
MDA-MB-231
  growth inhibition (GI): inactive
MDA-MB-468
  growth inhibition (GI): inactive

## Cc1c2c(nn1C(=O)CN1c3ccccc3Sc3ccccc31)CCCC2
[1]
  inhibition: 0%

## Cc1c2c(nn1C(=O)CCN1c3ccccc3Sc3ccccc31)CCCC2
[1]
  inhibition: 0%
CCRF-CEM
  inhibition of growth at 10 µM: 12.8%
HL-60(TB); HL-60, 48 h, read-out: GI
  inhibition of growth at 10 µM: 19.6%
MOLT-4
  growth inhibition (GI): inactive
RPMI-8226
  growth inhibition (GI): inactive
SF-295
  growth inhibition (GI): inactive
SNB-19
  growth inhibition (GI): inactive
U-251
  growth inhibition (GI): inactive
[2]
  inhibition of growth at 10 µM: 12.4%
HCT-15
  growth inhibition (GI): inactive
HT-29
  growth inhibition (GI): inactive
SW-620
  growth inhibition (GI): inactive
EKVX; read-out: GI
  inhibition of growth at 10 µM: 8.3%
NCI-H226; NCI-H226, 48 h, read-out: GI
  inhibition of growth at 10 µM: 12.8%
HOP-92
  inhibition of growth at 10 µM: 31.6%
NCI-H522
  inhibition of growth at 10 µM: 9.1%
LOX IMVI
  growth inhibition (GI): inactive
SK-MEL-5
  growth inhibition (GI): inactive
UACC-62
  inhibition of growth at 10 µM: 7.1%
ACHN
  growth inhibition (GI): inactive
SN12C
  growth inhibition (GI): inactive
CAKI-1
  growth inhibition (GI): inactive
UO-31
  growth inhibition (GI): inactive
OVCAR-3
  growth inhibition (GI): inactive
OVCAR-8
  growth inhibition (GI): inactive
NCI/ADR-RES
  inhibition of growth at 10 µM: 8.2%
PC-3
  inhibition of growth at 10 µM: 13%
MDA-MB-231
  growth inhibition (GI): inactive
MDA-MB-468; MDA-MB-468, 48 h, read-out: GI
  inhibition of growth at 10 µM: 11.2%

## CCOC(=O)C1=NN(C(=O)CN2c3ccccc3Sc3ccccc32)C(O)(c2ccccc2)C1 (configuration not stated)
[1]
  inhibition: 30.7%

## CCOC(=O)C1=NN(C(=O)CCN2c3ccccc3Sc3ccccc32)C(O)(c2ccccc2)C1 (configuration not stated)
[1]
  inhibition: 22.8%

## N#Cc1cnn(C(=O)CCN2c3ccccc3Sc3ccccc32)c1N
[1]
  inhibition: 4.7%

## Cc1c2c(nn1C(=O)CN1c3ccccc3Sc3ccccc31)CCCC2=O
[1]
  inhibition: 0%
